Source: patent US11834469B2, “AMP-activated protein kinase activating compounds and uses thereof” (Skylark Bioscience LLC, priority 2018, dated 2023)

Test system: HEK293 cells
Assay: HEK293 Cytotoxicity Assay (CellTiterGlo, CC50)
Type: cell-based, human
Description: Some exemplary assays and examples for assessing therapeutic efficacy, e.g., anticancer effects, of exemplary compounds of the invention are described herein or are well known in the art. HEK293 is a human kidney cell line, and efficacy on HEK293 is considered to be predictive of usefulness for therapeutic treatment.
HEK293 cells were obtained from American Type Culture Collection (ATCC) (Rockville Md.). Cells were maintained in Dulbecco's modified Eagle's medium (DMEM) (Invitrogen, Carlsbad, Calif.) with 10% fetal bovine serum (FBS), 10 mM HEPES and 1 mM sodium pyruvate. Cells were grown at 37° C. in a humidified incubator with a gas phase of 5% CO2. Cells were grown for 24 hours in a Tripleflask (NUNC) to −95% confluence and then resuspended for dispensing at 125,000 cells/mL of DMEM, 10% FBS, 10 mM Hepes and 1 mM sodium pyruvate.
HEK293 cells were seeded in 96 well microtiter plates at 10000 cells/well. After 24 hours of incubation an equal volume of fresh media containing test compounds at given concentrations was added. Plates were then incubated and cells were allowed to proliferate for 48 hours at 37° C., 95% humidity, and 5% CO2. […] A solution of Promega CellTiterGlo (100 microliters) was added by Thermo Combi and the plates were allowed to sit for 10 minutes before reading on a Perkin-Elmer EnVision with US LUM settings for 0.1 sec per well. […]

SMILES | activity on HEK293 cells (CC50, 50% cytotoxic concentration) (at 500 uM, 48 hours with compound) | potency relative to AICAR in HEK293 assay (HEK293 cells, times the potency of AICAR)
COP(=O)(OC)OC[C@H]1O[C@@H](n2cnc(C(N)=O)c2N)[C@H](O)[C@@H]1O [SB00024] | inactive | 
NC(=O)c1ncn([C@@H]2O[C@H](COP(=O)(O)Oc3ccc([N+](=O)[O-])cc3)[C@@H](O)[C@H]2O)c1N [SB00039] |  | roughly 100 times
